Test results published in PubChem BioAssay (NCI).
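Briefly, cells in 96-well plates were exposed to five compound concentrations for 48 h, and endpoints were estimated by linear interpolation. GI50 is the concentration that inhibits growth by half. TGI: concentration producing complete growth inhibition.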

Key:
Experiment in all cases: inhibition of tumour cell growth, NCI panel, 48 h
HCT-15 colon = tested on: HCT-15 colon
EKVX NSCLC = tested on: EKVX NSCLC
SNB-19 CNS = tested on: SNB-19 CNS
MALME-3M melanoma = tested on: MALME-3M melanoma
RPMI-8226 leukemia = tested on: RPMI-8226 leukemia
DU-145 prostate = tested on: DU-145 prostate
NCI-H23 lung = tested on: NCI-H23 lung
UO-31 renal = tested on: UO-31 renal
SK-MEL-5 melanoma = tested on: SK-MEL-5 melanoma
K-562 leukemia = tested on: K-562 leukemia
SF-268 CNS = tested on: SF-268 CNS
SK-OV-3 ovarian = tested on: SK-OV-3 ovarian
UACC-62 melanoma = tested on: UACC-62 melanoma
CCRF-CEM leukemia = tested on: CCRF-CEM leukemia
LOX IMVI melanoma = tested on: LOX IMVI melanoma
HOP-62 NSCLC = tested on: HOP-62 NSCLC
M14 melanoma = tested on: M14 melanoma
HL-60(TB) leukemia = tested on: HL-60(TB) leukemia
A498 renal = tested on: A498 renal
MDA-MB-231 breast = tested on: MDA-MB-231 breast
SF-539 CNS = tested on: SF-539 CNS
OVCAR-8 ovarian = tested on: OVCAR-8 ovarian
A549 NSCLC = tested on: A549 NSCLC
NCI-H226 lung = tested on: NCI-H226 lung
MOLT-4 leukemia = tested on: MOLT-4 leukemia
NCI-H522 lung = tested on: NCI-H522 lung
HCC-2998 colon = tested on: HCC-2998 colon
HCT-116 colon = tested on: HCT-116 colon
IGROV1 ovarian = tested on: IGROV1 ovarian

How did the GI50 (HCT-15 colon) turn out when `CC(=O)O[C@H]1[C@@H]2OC(=O)C(CSc3ccccc3)[C@@H]2C[C@H]2O[C@]2(C)CC/C=C(\C)CCC[C@@H]1C` (stereo partly drawn) was run?
Its GI50 is 1.95 µM.

What about the TGI (HCT-15 colon) of the same molecule?
The TGI was 6.52 µM.

What about the GI50 (EKVX NSCLC) of the same molecule?
The GI50 was 3.27 µM.

What about the TGI (EKVX NSCLC) of the same molecule?
Its TGI is 12.9 µM.

And the GI50 (SNB-19 CNS)?
Its GI50 is 11.9 µM.

And the TGI (SNB-19 CNS)?
Its TGI is 62.8 µM.

And the GI50 (MALME-3M melanoma)?
The GI50 was 4.05 µM.

And the TGI (MALME-3M melanoma)?
Its TGI is 19.5 µM.

And the GI50 (RPMI-8226 leukemia)?
The GI50 was 0.192 µM.

And the TGI (RPMI-8226 leukemia)?
The TGI was 10.4 µM.

What about the GI50 (DU-145 prostate) of the same molecule?
The GI50 was 2.34 µM.

And the TGI (DU-145 prostate)?
Its TGI is 5.6 µM.

And the GI50 (NCI-H23 lung)?
Its GI50 is 3.51 µM.

What about the TGI (NCI-H23 lung) of the same molecule?
The TGI was 22.2 µM.

What about the GI50 (UO-31 renal) of the same molecule?
The GI50 was 1.96 µM.

And the TGI (UO-31 renal)?
The TGI was 5.26 µM.

What about the GI50 (SK-MEL-5 melanoma) of the same molecule?
Its GI50 is 2.57 µM.

And the TGI (SK-MEL-5 melanoma)?
The TGI was 8.65 µM.

What about the GI50 (K-562 leukemia) of the same molecule?
The GI50 was 2.15 µM.

What about the TGI (K-562 leukemia) of the same molecule?
Its TGI is over 24.6 µM.

And the GI50 (SF-268 CNS)?
Its GI50 is 3.51 µM.

And the TGI (SF-268 CNS)?
The TGI was 13.3 µM.

What about the GI50 (SK-OV-3 ovarian) of the same molecule?
Its GI50 is 13.6 µM.

What about the TGI (SK-OV-3 ovarian) of the same molecule?
The TGI was 57 µM.

What about the GI50 (UACC-62 melanoma) of the same molecule?
The GI50 was 4.65 µM.

And the TGI (UACC-62 melanoma)?
The TGI was 14.8 µM.

What about the GI50 (CCRF-CEM leukemia) of the same molecule?
Its GI50 is 2.17 µM.

What about the TGI (CCRF-CEM leukemia) of the same molecule?
The TGI was over 21.1 µM.

And the GI50 (LOX IMVI melanoma)?
Its GI50 is 3.22 µM.

What about the TGI (LOX IMVI melanoma) of the same molecule?
Its TGI is 13.9 µM.

And the GI50 (HOP-62 NSCLC)?
Its GI50 is 9.29 µM.

And the TGI (HOP-62 NSCLC)?
Its TGI is 32.5 µM.

And the GI50 (M14 melanoma)?
The GI50 was 2.13 µM.

What about the TGI (M14 melanoma) of the same molecule?
Its TGI is 5.37 µM.

And the GI50 (HL-60(TB) leukemia)?
Its GI50 is 1.4 µM.

What about the TGI (HL-60(TB) leukemia) of the same molecule?
Its TGI is 4.69 µM.

What about the GI50 (A498 renal) of the same molecule?
Its GI50 is 2.17 µM.

What about the TGI (A498 renal) of the same molecule?
The TGI was 6.37 µM.

What about the GI50 (MDA-MB-231 breast) of the same molecule?
The GI50 was 4.25 µM.

And the TGI (MDA-MB-231 breast)?
The TGI was 19.5 µM.

And the GI50 (SF-539 CNS)?
Its GI50 is 9.4 µM.

And the TGI (SF-539 CNS)?
Its TGI is 23.3 µM.

And the GI50 (OVCAR-8 ovarian)?
The GI50 was 3.77 µM.

And the TGI (OVCAR-8 ovarian)?
Its TGI is 29.5 µM.

What about the GI50 (A549 NSCLC) of the same molecule?
The GI50 was 4.34 µM.

And the TGI (A549 NSCLC)?
The TGI was 21.4 µM.

What about the GI50 (NCI-H226 lung) of the same molecule?
Its GI50 is 4.69 µM.

And the TGI (NCI-H226 lung)?
The TGI was 18 µM.

And the GI50 (MOLT-4 leukemia)?
The GI50 was 2.52 µM.

What about the TGI (MOLT-4 leukemia) of the same molecule?
The TGI was over 23.8 µM.

What about the GI50 (NCI-H522 lung) of the same molecule?
The GI50 was 1.74 µM.

What about the TGI (NCI-H522 lung) of the same molecule?
The TGI was 3.68 µM.

And the GI50 (HCC-2998 colon)?
Its GI50 is 4.7 µM.

What about the TGI (HCC-2998 colon) of the same molecule?
The TGI was 16.3 µM.

What about the GI50 (HCT-116 colon) of the same molecule?
Its GI50 is 1.46 µM.

And the TGI (HCT-116 colon)?
The TGI was 2.91 µM.

And the GI50 (IGROV1 ovarian)?
The GI50 was 3.05 µM.

What about the TGI (IGROV1 ovarian) of the same molecule?
The TGI was 9.38 µM.
